Test results reported in PMC8362126, “Proteolysis Targeting Chimera (PROTAC) for Macrophage Migration Inhibitory Factor (MIF) Has Anti‐Proliferative Activity in Lung Cancer Cells” (Angewandte Chemie (International Ed. in English), 2021).
“Also recorded” adds a separate entry of the source.

Assays:
[1] = tested on: A549 cells; test: CyQUANT cell proliferation assay; type: cell-based, human; details: concentrations up to 20 μM, 72 hours
Method: S8. Cell growth, cell cycle and pERK signaling study
Cell proliferation was measured with the CyQUANT® Direct Cell Proliferation Assay Kit (Thermo Fisher, #C35011). A549 cells were cultured in 96-well plates at a density of 1,000 cells/well and treated with different concentrations of MIF PROTAC (0.02-20 μM) for 72 h.
Cells were incubated with detection reagent (100 μL) for 60 min at 37 °C with 5% CO2. The fluorescence of each well was read at 485/535nm by plate reader (BioTek).
Figure S8. Cells were seeded with a density of 1000 cells per well in a 96-well plate. After overnight incubation, the cells were treated with various concentration of MD13 for 72 hours.
The resulting cells were quantified by CyQUANT® cell proliferation assays and compared with the vehicle (DMSO) control (n=3). […]
(also on this page, place not known: (0.02 -20 CO 2. (20 µM) 4 (20 µM) µM 20 µM 0.01 µM 0.08 µM 0.74 µM 6.7 µM 20 µM 0 50 100 Cell (%) H441 n.s. * * ** *** * n.s. MD15 96 -well MD13 proliferation control 96 -well round - 2 3) […]
(1 picture or pasted object on this page, not shown here)

[2] = tested on: ERK phosphorylation; test: ERK phosphorylation by western blot; type: cell-based, human; details: A549, 2 μM; 3 and 4 for 24 h, MD15 for 6, 24 or 48 h
Method: The effect of treatment with MIF‐directed PROTAC MD13 on MIF‐related signaling pathways was investigated by assessment of ERK phosphorylation using western blot analysis. […] Thus treatment with the MIF‐directed PROTAC MD13 inhibits ERK phosphorylation as a MIF‐related signaling event. […]
ERK signaling pathway study. A549 cells (2x10^5 cells per well) were seeded into each well of a 6-well plate with 2 mL RPMI-1640 medium containing 10% FBS (Costar Europe, Badhoevedorp, The Netherlands), and 1% penicillin/streptomycin solution (Corning). After overnight culturing, the cells were treated with MD13, MD15, or DMSO for the time indicated.
After that, cells were lysed by RIPA buffer containing 1× PhosSTOP and protease inhibitor (PI) cocktail (Roche, Mannheim, Germany). The BCA Protein Assay Kit (Pierce, Rockford IL, USA) was used to determine the protein concentration. 30 µg protein was separated by a pre-cast 10% NuPAGE Bis-Tris gel (Invitrogen, USA) and then transferred to a polyvinylidene difluoride (PVDF) membrane. After blocking with 5% of skimmed milk for 1 hour at room temperature and incubation with the appropriate primary antibody (pERK, #9101, Cell Signaling, 1:1000; GAPDH, #97166, Cell Signaling, 1:10000) overnight at 4 °C, the membrane was treated with an HRP-conjugated secondary goat anti-rabbit antibody (#P0448, Dako, 1:2000) or rabbit anti-mouse antibody (#P0260, Dako, 1:2000) at room temperature for 1 hour.
The protein bands were visualized with enhanced chemiluminescence (ECL) solution (GE Healthcare). The figures were quantified with imageJ software based on grayscale. […]

[3] = target: T1, MIF (Homo sapiens, UniProt P14174); test: MIF degradation in A549 cells, western-blot; type: cell-based; parameters: endogenous in cells; host or cells: A549 (ATCC CCL-185); details: A549 cells
T1 sequence (P14174 2-115 limits assumed): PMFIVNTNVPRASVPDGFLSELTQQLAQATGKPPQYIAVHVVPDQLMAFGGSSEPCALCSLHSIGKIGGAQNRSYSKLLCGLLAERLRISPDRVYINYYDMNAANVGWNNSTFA
Method: The concentration dependence of PROTAC MD13‐mediated induction of MIF degradation in A549 cells was investigated using western‐blot. […] The MIF levels were normalized to the vehicle treated control and plotted to the respective MD13 concentrations. This provided a DC50 of around 100 nM and a maximal degradation of around 90–95 % at concentrations higher than 1 μM (Figure 3 B). The DC50 of MD13 measured by ELISA assay was about 200 nM (Figure 3 C), which is in line with the result from western‐blot. […]
Cell lysates were prepared using the protocol described above. About 10−40 μg of total protein was mixed with the 4× Laemmli Loading Dye (250 mM Tris, pH 6.8, 40% glycerol, 5% SDS, 0.005% bromophenol blue, 4% β-mercaptoethanol) and heated at 95−100 °C for 5 min and loaded onto a 12% Bis-Tris gel (Bio-Rad Laboratories, #4561084) and proteins were separated at 120V. Afterwards, proteins were transferred to polyvinylidene fluoride (PVDF) membranes, subsequently non-specific antibody binding was blocked with 5% nonfat dry milk (BIO-RAD, #1706404) in TBST buffer and incubated overnight at 4 °C with one of the following primary antibodies: anti-MIF (1:1000, ThermoFisher, #PA5-27343 ) or anti-β-actin (1:10000 Cell Signalling, #8457). The membranes were further incubated with a goat anti-rabbit HRP-conjugated secondary antibody (1:2000, DAKO, p0448) for 2 h at room temperature. Proteins were visualized with an ECLTM Prime Western Blotting System (GE Healthcare #RPN2232). The immunoblot was generated by ChemiDoc MP Imaging Systems (Bio-Rad) and analyzed by the ImageJ software. […]
As a control, the same experiment was repeated and analyzed by a western-blot assay (Figure 3B). The potency estimated from the Western blot assay was 1 µM (Figure 3C), which is consistent with the result from the ELISA assay. The “Hook effect” […]

[4] = tested on: A549 cell spheroids; test: 3D tumor spheroid assay; type: cell-based, human; details: 5 μM, 12 days
Method: A 3D spheroid model was employed to investigate the effect of longer term MD13 treatment in a more complex model for tumor growth. The 3D spheroid model was established using A549 cancer cells by a method adapted from Feng et al.[48] The spheroids were grown over a 12‐day period in absence or presence of PROTAC MD13. Each spheroid was prepared from about 1000 A549 cells. After three‐day incubation, these spheroids were treated with 1, 2, or 5 μM of MD13 with 72 hours intervals over 12 days. Spheroid growth was monitored by measuring the diameter and this was compared to day 0 of the treatment. The tumor spheroids in MD13 treated groups were significant smaller compared to the control group (Figure 5 B and Figure S9). With continuous exposure to 1, 2, or 5 μM of MD13 for 12 days, the growth of the spheroid tumor volume was inhibited by 42 %, 53 %, and 81 % compared with control group, respectively. […]
Tumor spheroid assay. A549 cells (1000 cells/well) were seeded onto a 96-well round-bottomed ultra low attachment plate (Corning). After 2 days of incubation without disturbance, the spheroid was treated with indicated compound every 3 days. […]
(1 picture or pasted object on this page, not shown here) […]
inverted microscope (Nikon Eclipse Ti) connected with a NIS-elements software. The data were analyzed and plotted with Graphpad Prism8. […]
cells were seeded in an ultralow attachment 96-well round-bottomed plate (1000 cells/well) to generate tumor spheroids (a single spheroid per well). After initiation, the spheroids were treated with different compounds at the indicated concentrations every three days. DMSO was used as vehicle control. The day of the first treatment was indicated as day 0. (A) Representative images were obtained at the indicated intervals using an inverted microscope. Scale bar: 500 μm. (B) Analysis was carried out using NIS-Elements AR 3.1 software, and growth curves were obtained relative to the untreated spheroids (day 0) and plotted with GraphPad Prism 8. Values are shown as means ± SD (n = 3 spheroids/time point, **p < 0.01 vs control). […]

Q: Which results are given for Nc1cccc2c1C(=O)N(C1CCC(=O)NC1=O)C2=O (centres unmarked) [compound 4, pomalidomide]?
A: effect on cell proliferation [1]: no effect; also recorded: no or little effect; effect on pERK levels [2]: no significant decrease; rescue of MD9 mediated MIF degradation ([3]; 2 hours pretreatment (1 100 µM, 3 50 µM, 4 50 µM, Bortezomib), then 10 µM MD9 12 h): partial to complete rescue; also recorded: rescued; rescue of MD13 mediated MIF degradation ([3]; co-treatment (Bortezomib) or 1 hour pretreatment (3, 4) with MD13): rescued MIF from degradation; also recorded: able to abolish the MD13 triggered degradation; influence on spheroid tumor growth [4]: no significant influence
